Tests used:
[1] = test system: KYAE-1 (Esophageal Adenocarcinoma); assay: Bliss excess, mean over the matrix (fraction); higher = more synergy
Summary of the method: (§1)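 Cell lines in DMEM/F12 or RPMI with 10% FBS were plated in 1536-well plates, held 24 hours at 37°C, 5% CO2, then given two-drug dose matrices for 72 hours (DMSO typically 0.2%). Viability was read by CellTiter-Glo 2.0 luminescence and scaled as inhibition from 0 (vehicle wells) to 1 (blank wells). Combination Emax is the second-highest inhibition in the matrix; Bliss excess is observed combination effect minus expected EA + EB − EA·EB, EA and EB being single-agent effects.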

[2] = test system: LS-123 (Colorectal Carcinoma); assay: as above
Summary of the method: as §1

[3] = test system: OVCAR-5 (Ovarian Carcinoma); assay: as above
Summary of the method: as §1

NCI-H2052 (Mesothelioma) [4] = assay: as above
Summary of the method: as §1

[5] = test system: KYAE-1 (Esophageal Adenocarcinoma); assay: combination Emax (second highest fraction inhibited in the dose matrix, 72 h); higher = more inhibition; extreme values may be limits of the assay
Summary of the method: as §1

[6] = test system: HuCCT1 (Biliary Tract Carcinoma); assay: as above
Summary of the method: as §1

EW-11 (Ewing's Sarcoma) = assay: as above
Summary of the method: as §1

[7] = test system: ALL-PO (B-Lymphoblastic Leukemia); assay: as above
Summary of the method: as §1

[8] = test system: SNU-16 (Gastric Carcinoma); assay: as above
Summary of the method: as §1

[9] = test system: Detroit562 (Head and Neck Carcinoma); assay: as above
Summary of the method: as §1

[10] = test system: FTC-133 (Thyroid Gland Carcinoma); assay: as above
Summary of the method: as §1

KS-1 (Glioblastoma) = assay: as above
Summary of the method: as §1

[11] = test system: HeLa (Cervical Carcinoma); assay: as above
Summary of the method: as §1

[12] = test system: BE-13 (T-Lymphoblastic Leukemia); assay: as above
Summary of the method: as §1

[13] = test system: SNU-449 (Hepatocellular Carcinoma); assay: as above
Summary of the method: as §1

[14] = test system: NUGC-4 (Gastric Carcinoma); assay: as above
Summary of the method: as §1

NCI-H2052 (Mesothelioma) [15] = assay: as above
Summary of the method: as §1

[16] = test system: BFTC-909 (Kidney Carcinoma); assay: as above
Summary of the method: as §1
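Throughout, for Bliss excess, mean over the matrix: after 72 h of two-drug dosing.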

Structure (SMILES) | Bliss excess [1] | Bliss excess [2] | Bliss excess [3] | Bliss excess (NCI-H2052 (Mesothelioma) [4]) | combination Emax [5] | combination Emax [6] | combination Emax (EW-11 (Ewing's Sarcoma)) | combination Emax [7] | combination Emax [8] | combination Emax [9] | combination Emax [10] | combination Emax (KS-1 (Glioblastoma)) | combination Emax [11] | combination Emax [12] | combination Emax [13] | combination Emax [14] | combination Emax (NCI-H2052 (Mesothelioma) [15]) | combination Emax [16]
COc1cccc(OCCCN)c1-c1cc(Nc2cnc(C#N)cn2)n[nH]1 [Prexasertib] + C[C@@H]1COCCN1C2=NC(=NC(=C2)C3(CC3)[S@](=N)(=O)C)C4=C5C=CNC5=NC=C4 [AZD6738] (first compound max 1 µM, 7x7, partner max 10 µM) | 0.0651 | -0.0242 | 0.0185 | -0.0282 | 0.573 | 0.835 | 0.734 | 0.982 | 1 | 0.918 | 0.861 | 0.581 | 0.864 | 0.967 | 0.282 | 0.543 | 0.537 | 0.94
C[C@@H]1COCCN1c1cc(C2([S@](C)(=N)=O)CC2)nc(-c2ccnc3[nH]ccc23)n1 [AZD6738] + O=C(c1cc(Cc2n[nH]c(=O)c3ccccc23)ccc1F)N1CCN(C(=O)C2CC2)CC1 [Olaparib] (first compound max 10 µM, 7x7, partner max 10 µM) | -0.0082 | 0.0192 | -0.0994 | 0.026 | 0.139 | 0.784 | 0.72 | 0.955 | 0.956 | 0.862 | 0.672 | 0.573 | 0.713 | 0.702 | 0.234 | 0.551 | 0.478 | 0.728
C=CCn1c(=O)c2cnc(Nc3ccc(N4CCN(C)CC4)cc3)nc2n1-c1cccc(C(C)(C)O)n1 [AZD1775] + O=C(c1cc(Cc2n[nH]c(=O)c3ccccc23)ccc1F)N1CCN(C(=O)C2CC2)CC1 [Olaparib] (first compound max 1 µM, partner max 10 µM) | -0.0006 | -0.0694 | -0.041 | -0.0602 | 0.468 | 0.818 | 0.599 | 0.951 | 0.931 | 0.669 | 0.602 | 0.481 | 0.694 | 0.984 | 0.22 | 0.302 | 0.467 | 0.595
CCN(CCO)CCCOc1ccc2c(Nc3cc(CC(=O)Nc4cccc(F)c4)[nH]n3)ncnc2c1 [AZD2811] + C[C@@H]1COCCN1C2=NC(=NC(=C2)C3(CC3)[S@](=N)(=O)C)C4=C5C=CNC5=NC=C4 [AZD6738] (first compound max 1 µM, 7x7, partner max 10 µM) | -0.0234 | -0.0258 | -0.0429 | -0.0207 | 0.122 | 0.773 | 0.686 | 0.979 | 0.974 | 0.913 | 0.688 | 0.576 | 0.567 | 0.732 | 0.176 | 0.547 | 0.359 | 0.777
COc1cccc2c1C(=O)c1c(O)c3c(c(O)c1C2=O)C[C@@](O)(C(=O)CO)C[C@@H]3O[C@H]1C[C@H](N)[C@H](O)[C@H](C)O1 [Doxorubicin] + Cc1cc2ncnn2cc1Nc1ncc2c(n1)n(C1CCOCC1)c(=O)n2C [AZD7648] (first compound max 1 µM, 7x7, partner max 10 µM) | 0.0242 | 0.035 | -0.0058 | 0.0122 | 0.879 | 0.746 | 0.893 | 1 | 0.97 | 0.681 | 0.92 | 0.619 | 0.499 | 0.965 | 0.173 | 0.393 | 0.745 | 0.853
COc1cccc(OCCCN)c1-c1cc(Nc2cnc(C#N)cn2)n[nH]1 [Prexasertib] + C=CCn1c(=O)c2cnc(Nc3ccc(N4CCN(C)CC4)cc3)nc2n1-c1cccc(C(C)(C)O)n1 [AZD1775] (first compound max 1 µM, partner max 1 µM) | 0.103 | -0.0296 | 0.044 | 0.0221 | 0.795 | 0.827 | 0.683 | 0.989 | 1 | 0.949 | 0.858 | 0.581 | 0.91 | 1 | 0.439 | 0.555 | 0.699 | 0.977
CN(C)CCCOc1ccc(-c2ccc3ncc4c(c3c2)n(C2CCOCC2)c(=O)n4C)cn1 [AZD0156] + CCN(CCO)CCCOc1ccc2c(Nc3cc(CC(=O)Nc4cccc(F)c4)[nH]n3)ncnc2c1 [AZD2811] (first compound max 1 µM, 7x7, partner max 1 µM) | -0.0154 | -0.0409 | -0.0281 | -0.0123 | 0.103 | 0.137 | 0.409 | 0.977 | 0.593 | 0.75 | 0.284 | 0.291 | 0.156 | 0.674 | 0.0548 | 0.0855 | 0.284 | 0.127
CN(C)CCCOc1ccc(-c2ccc3ncc4c(c3c2)n(C2CCOCC2)c(=O)n4C)cn1 [AZD0156] + C=CCn1c(=O)c2cnc(Nc3ccc(N4CCN(C)CC4)cc3)nc2n1-c1cccc(C(C)(C)O)n1 [AZD1775] (first compound max 1 µM, partner max 1 µM) | -0.0143 | -0.0229 | -0.0043 | -0.0554 | 0.426 | 0.717 | 0.486 | 0.959 | 0.919 | 0.606 | 0.536 | 0.39 | 0.498 | 0.964 | 0.142 | 0.273 | 0.376 | 0.67
COc1cccc(OCCCN)c1-c1cc(Nc2cnc(C#N)cn2)n[nH]1 [Prexasertib] + Cc1cc2ncnn2cc1Nc1ncc2c(n1)n(C1CCOCC1)c(=O)n2C [AZD7648] (first compound max 1 µM, 7x7, partner max 10 µM) | 0.0382 | -0.0141 | -0.0016 | -0.0349 | 0.467 | 0.83 | 0.742 | 0.993 | 0.998 | 0.922 | 0.82 | 0.546 | 0.839 | 0.952 | 0.308 | 0.493 | 0.649 | 0.945
CN(C)CCCOc1ccc(-c2ccc3ncc4c(c3c2)n(C2CCOCC2)c(=O)n4C)cn1 [AZD0156] + C[C@@H]1COCCN1C2=NC(=NC(=C2)C3(CC3)[S@](=N)(=O)C)C4=C5C=CNC5=NC=C4 [AZD6738] (first compound max 1 µM, 7x7, partner max 10 µM) | -0.011 | -0.0313 | -0.001 | -0.0317 | 0.0979 | 0.796 | 0.668 | 0.922 | 0.982 | 0.88 | 0.666 | 0.561 | 0.679 | 0.723 | 0.176 | 0.639 | 0.399 | 0.813
C=CCn1c(=O)c2cnc(Nc3ccc(N4CCN(C)CC4)cc3)nc2n1-c1cccc(C(C)(C)O)n1 [AZD1775] + C[C@@H]1COCCN1C2=NC(=NC(=C2)C3(CC3)[S@](=N)(=O)C)C4=C5C=CNC5=NC=C4 [AZD6738] (first compound max 1 µM, partner max 10 µM) | 0.026 | -0.0519 | 0.0146 | -0.0197 | 0.588 | 0.861 | 0.72 | 0.977 | 0.989 | 0.902 | 0.766 | 0.66 | 0.948 | 1 | 0.409 | 0.593 | 0.488 | 0.906
COc1cccc(OCCCN)c1-c1cc(Nc2cnc(C#N)cn2)n[nH]1 [Prexasertib] + O=C(c1cc(Cc2n[nH]c(=O)c3ccccc23)ccc1F)N1CCN(C(=O)C2CC2)CC1 [Olaparib] (first compound max 1 µM, 7x7, partner max 10 µM) | 0.0116 | -0.0312 | -0.17 | -0.0332 | 0.56 | 0.844 | 0.792 | 0.979 | 1 | 0.922 | 0.915 | 0.628 | 0.773 | 0.978 | 0.234 | 0.415 | 0.589 | 0.917
CCN(CCO)CCCOc1ccc2c(Nc3cc(CC(=O)Nc4cccc(F)c4)[nH]n3)ncnc2c1 [AZD2811] + O=C(c1cc(Cc2n[nH]c(=O)c3ccccc23)ccc1F)N1CCN(C(=O)C2CC2)CC1 [Olaparib] (first compound max 1 µM, 7x7, partner max 10 µM) | 0.0093 | 0.0144 | -0.0048 | -0.0042 | 0.208 | 0.25 | 0.564 | 0.975 | 0.705 | 0.702 | 0.223 | 0.363 | 0.293 | 0.824 | 0.205 | 0.21 | 0.184 | 0.221
CCN(CCO)CCCOc1ccc2c(Nc3cc(CC(=O)Nc4cccc(F)c4)[nH]n3)ncnc2c1 [AZD2811] + C=CCn1c(=O)c2cnc(Nc3ccc(N4CCN(C)CC4)cc3)nc2n1-c1cccc(C(C)(C)O)n1 [AZD1775] (first compound max 1 µM, partner max 1 µM) | -0.0176 | -0.0373 | -0.0616 | -0.0485 | 0.395 | 0.739 | 0.469 | 0.981 | 0.916 | 0.828 | 0.685 | 0.481 | 0.449 | 0.982 | 0.249 | 0.227 | 0.38 | 0.683
